According to ChEMBL document CHEMBL5236606, “Synthesis, Structure-Activity Relationships, and In Vivo Evaluation of Novel C-17 Amine Derivatives Based on GSK3640254 as HIV-1 Maturation Inhibitors with Broad Spectrum Activity” (J Med Chem, 2022):
pEC50: −log10 of the molar value.

How the values were obtained:
[1] = tested on: Human immunodeficiency virus 1; test: Antiviral activity against wild type HIV-1 NLRepRlucP373S infected in human MT2 cells assessed as inhibition of viral growth measured after 4 to 5 days in presence of 10% FBS and 40% human serum supplemented with 27 mg/mL of human serum albumin by Dual luciferase reporter assay; assay type: functional, organism-based; conditions: Human immunodeficiency virus 1, NLRepRlucP373S
[2] = Fold resistance, ratio of EC50 for antiviral activity against wild type HIV-1 NLRepRlucP373S infected in human MT2 cells assessed as inhibition of viral growth in presence of 10% FBS and 40% human serum supplemented with 27mg/mL of human serum albumin to EC50 for antiviral activity against wild type HIV-1 NLRepRlucP373S infected in human MT2 cells assessed as inhibition of viral growth; assay type: functional, Human immunodeficiency virus 1
[3] = Cytotoxicity against human MT2 cells assessed as reduction in cell viability; assay type: toxicity, cell-based
[4] = tested on: Human immunodeficiency virus 1; test: Antiviral activity against wild type HIV-1 NLRepRlucP373S infected in human MT2 cells assessed as inhibition of viral growth measured after 4 to 5 days by Dual luciferase reporter assay; assay type: functional, organism-based; conditions: Human immunodeficiency virus 1, NLRepRlucP373S
[5] = tested on: Human immunodeficiency virus 1; test: Antiviral activity against wild type HIV-1 NLRepRlucP373S harboring T332S/V362I/prR41G mutant infected in human MT2 cells assessed as inhibition of viral growth measured after 4 to 5 days by Dual luciferase reporter assay; assay type: functional, organism-based; conditions: Human immunodeficiency virus 1, NLRepRlucP373S
[6] = Solubility of compound in FaSSIF at pH 6.5; assay type: ADME
[7] = Solubility of the compound in FeSSIF at pH 5.0; assay type: ADME
[8] = tested on: Human immunodeficiency virus 1; test: Antiviral activity against wild type HIV-1 NLRepRlucP373S harboring deltaV370 mutant infected in human MT2 cells assessed as inhibition of viral growth measured after 4 to 5 days by Dual luciferase reporter assay; assay type: functional, organism-based; conditions: Human immunodeficiency virus 1, NLRepRlucP373S
[9] = tested on: Human immunodeficiency virus 1; test: Antiviral activity against wild type HIV-1 NLRepRlucP373S harboring V362I/V370A mutant infected in human MT2 cells assessed as inhibition of viral growth measured after 4 to 5 days by Dual luciferase reporter assay; assay type: functional, organism-based; conditions: Human immunodeficiency virus 1, NLRepRlucP373S

Row | SMILES | pEC50 [1] | fold change (FC) [2] | CC50 [3] [nM] | pEC50 [4] | pEC50 [5] | solubility [6] [µM] | solubility [7] [µM] | pEC50 [8] | pEC50 [9]
1 | C=C(C)[C@@H]1CC[C@]2(NCCN3CCOCC3)CC[C@]3(C)[C@H](CC[C@@H]4[C@@]5(C)CC=C(C6=CC[C@](CF)(C(=O)O)CC6)C(C)(C)[C@@H]5CC[C@]43C)[C@@H]12 | 7.28 | 12 | 7700 | 8.35 | 7.74 |  |  |  | 
2 | C=C(C)[C@@H]1CC[C@]2(NCC[C@]3(O)CC[C@@](C)(O)CC3)CC[C@]3(C)[C@H](CC[C@@H]4[C@@]5(C)CC=C(C6=CC[C@](CF)(C(=O)O)CC6)C(C)(C)[C@@H]5CC[C@]43C)[C@@H]12 | 7.80 | 9.8 | 18000 | 8.77 | 8.21 |  |  |  | 
3 | C=C(C)[C@@H]1CC[C@]2(NCCC(C)(C)O)CC[C@]3(C)[C@H](CC[C@@H]4[C@@]5(C)CC=C(C6=CC[C@](CF)(C(=O)O)CC6)C(C)(C)[C@@H]5CC[C@]43C)[C@@H]12 | 7.59 | 14 | 8300 | 8.72 | 8.08 |  |  |  | 
4 | C=C(C)[C@@H]1CC[C@]2(NCCN3CCS(=O)(=O)CC3)CC[C@]3(C)[C@H](CC[C@@H]4[C@@]5(C)CC=C(C6=CC[C@@](CF)(C(=O)O)CC6)C(C)(C)[C@@H]5CC[C@]43C)[C@@H]12.Cl.Cl |  |  |  |  |  | 310 | 800 |  | 
5 | C=C(C)[C@@H]1CC[C@]2(NCCC3(O)CCOCC3)CC[C@]3(C)[C@H](CC[C@@H]4[C@@]5(C)CC=C(C6=CC[C@](CF)(C(=O)O)CC6)C(C)(C)[C@@H]5CC[C@]43C)[C@@H]12 | 7.52 | 15 | 9500 | 8.70 | 8.09 |  |  |  | 
6 | C=C(C)[C@@H]1CC[C@]2(NCCC3(O)CCN(S(C)(=O)=O)CC3)CC[C@]3(C)[C@H](CC[C@@H]4[C@@]5(C)CC=C(C6=CC[C@](CF)(C(=O)O)CC6)C(C)(C)[C@@H]5CC[C@]43C)[C@@H]12 | 7.72 | 73 | 23000 | 8.59 | 8.08 |  |  |  | 
7 | C=C(C)[C@@H]1CC[C@]2(NCC[C@]3(O)CC[C@H](S(C)(=O)=O)CC3)CC[C@]3(C)[C@H](CC[C@@H]4[C@@]5(C)CC=C(C6=CC[C@](CF)(C(=O)O)CC6)C(C)(C)[C@@H]5CC[C@]43C)[C@@H]12 | 8.23 | 4.1 | 16000 | 8.82 | 8.34 |  |  |  | 
8 | C=C(C)[C@@H]1CC[C@]2(NCC[C@]3(O)CC[C@](C)(O)CC3)CC[C@]3(C)[C@H](CC[C@@H]4[C@@]5(C)CC=C(C6=CC[C@@](CF)(C(=O)O)CC6)C(C)(C)[C@@H]5CC[C@]43C)[C@@H]12 | 7.85 | 4.6 | 11000 | 8.52 | 8.04 |  |  |  | 
9 | C=C(C)[C@@H]1CC[C@]2(NCCN3CCS(=O)(=O)CC3)CC[C@]3(C)[C@H](CC[C@@H]4[C@@]5(C)CC=C(C6=CCC(CF)(C(=O)O)CC6)C(C)(C)[C@@H]5CC[C@]43C)[C@@H]12 (single isomer, unassigned) |  | 3.3 |  |  |  |  |  |  | 
10 | C=C(C)[C@@H]1CC[C@]2(NCCC3(O)CCC3)CC[C@]3(C)[C@H](CC[C@@H]4[C@@]5(C)CC=C(C6=CC[C@](CF)(C(=O)O)CC6)C(C)(C)[C@@H]5CC[C@]43C)[C@@H]12 | 7.44 | 6.4 | 12000 | 8.25 | 7.80 |  |  |  | 
11 | C=C(C)[C@@H]1CC[C@]2(NCCN3CCN(S(C)(=O)=O)CC3)CC[C@]3(C)[C@H](CC[C@@H]4[C@@]5(C)CC=C(C6=CC[C@](CF)(C(=O)O)CC6)C(C)(C)[C@@H]5CC[C@]43C)[C@@H]12 | 7.74 | 9 | 11400 | 8.70 | 8.24 |  |  |  | 
12 | C=C(C)[C@@H]1CC[C@]2(NCCCC(C)(C)O)CC[C@]3(C)[C@H](CC[C@@H]4[C@@]5(C)CC=C(C6=CC[C@](CF)(C(=O)O)CC6)C(C)(C)[C@@H]5CC[C@]43C)[C@@H]12 | 7.08 | 6.3 | 7500 | 7.85 | 7.36 |  |  |  | 
13 | C=C(C)[C@@H]1CC[C@]2(NCCC3(O)CCS(=O)(=O)CC3)CC[C@]3(C)[C@H](CC[C@@H]4[C@@]5(C)CC=C(C6=CC[C@](CF)(C(=O)O)CC6)C(C)(C)[C@@H]5CC[C@]43C)[C@@H]12 | 7.72 | 83 | 14000 | 8.64 | 8.11 |  |  |  | 
14 | C=C(C)[C@@H]1CC[C@]2(NCCC3(O)COC3)CC[C@]3(C)[C@H](CC[C@@H]4[C@@]5(C)CC=C(C6=CC[C@@](CF)(C(=O)O)CC6)C(C)(C)[C@@H]5CC[C@]43C)[C@@H]12 | 7.57 | 14 | 13000 | 8.72 | 7.92 |  |  |  | 
15 | C=C(C)[C@@H]1CC[C@]2(NCCC3CCS(=O)(=O)CC3)CC[C@]3(C)[C@H](CC[C@@H]4[C@@]5(C)CC=C(C6=CC[C@](CF)(C(=O)O)CC6)C(C)(C)[C@@H]5CC[C@]43C)[C@@H]12 | 7.27 | 14 | 14000 | 8.41 | 7.85 |  |  |  | 
16 | C=C(C)[C@@H]1CC[C@]2(NCCN3CCS(=O)(=O)CC3)CC[C@]3(C)[C@H](CC[C@@H]4[C@@]5(C)CC=C(c6ccc(C(=O)O)cc6)C(C)(C)[C@@H]5CC[C@]43C)[C@@H]12 [BMS-955176] |  | 2 | 13000 |  | 6.15 |  |  | 8.22 | 8.52
17 | C=C(C)[C@@H]1CC[C@]2(NCC(C)(C)O)CC[C@]3(C)[C@H](CC[C@@H]4[C@@]5(C)CC=C(C6=CC[C@](CF)(C(=O)O)CC6)C(C)(C)[C@@H]5CC[C@]43C)[C@@H]12 | 6.83 | 9.7 | 8700 | 7.82 | 7.30 |  |  |  | 
18 | C=C(C)[C@@H]1CC[C@]2(NCCC3CCOCC3)CC[C@]3(C)[C@H](CC[C@@H]4[C@@]5(C)CC=C(C6=CC[C@](CF)(C(=O)O)CC6)C(C)(C)[C@@H]5CC[C@]43C)[C@@H]12 | 6.01 | 33 | 13000 | 7.52 | 6.80 |  |  |  | 
19 | C=C(C)[C@@H]1CC[C@]2(NCC[C@]3(O)CC[C@@H](S(C)(=O)=O)CC3)CC[C@]3(C)[C@H](CC[C@@H]4[C@@]5(C)CC=C(C6=CC[C@@](CF)(C(=O)O)CC6)C(C)(C)[C@@H]5CC[C@]43C)[C@@H]12 | 7.52 | 13 | 17000 | 8.64 | 8.19 |  |  |  | 
20 | C=C(C)[C@@H]1CC[C@]2(NCCC3(O)CCN(C(C)=O)CC3)CC[C@]3(C)[C@H](CC[C@@H]4[C@@]5(C)CC=C(C6=CC[C@](CF)(C(=O)O)CC6)C(C)(C)[C@@H]5CC[C@]43C)[C@@H]12 | 7.62 | 14 | 14000 | 8.77 | 8.17 |  |  |  | 
21 | C=C(C)[C@@H]1CC[C@]2(NCCN3CCC(C)(O)CC3)CC[C@]3(C)[C@H](CC[C@@H]4[C@@]5(C)CC=C(C6=CC[C@](CF)(C(=O)O)CC6)C(C)(C)[C@@H]5CC[C@]43C)[C@@H]12 | 7.72 | 16 | 14000 | 8.92 | 8.25 |  |  |  | 
22 | C=C(C)[C@@H]1CC[C@]2(NCCC(C)C)CC[C@]3(C)[C@H](CC[C@@H]4[C@@]5(C)CC=C(C6=CC[C@](CF)(C(=O)O)CC6)C(C)(C)[C@@H]5CC[C@]43C)[C@@H]12 | 5.75 | 15 | 16000 | 6.92 | 6.03 |  |  |  | 
